Results from paper PMC11503492, “Activity-Based DNA-Encoded Library Screening for Selective Inhibitors of Eukaryotic Translation” (ACS Central Science, 2024).

Tests used:
[1] = test system: PCSK9[1:33]-GFP translation; assay: Wheat germ lysate (WG) IVTT microplate activity assay, PCSK9[1:33]-GFP template; format: biochemical; conditions: for inhibition of PCSK9[1:33]-GFP translation (in words) / IC50: WG IVTT; for IC50: PCSK9[1:33]-GFP template, triplicate, ± standard deviation of the mean
Description: A commercially available wheat germ lysate (WG) IVTT system was employed to assay translation inhibition. Translation activity was detected via a GFP reporter, and the assay was miniaturized to picoliter-scale microfluidic droplets (Figure 1A,B). […] PCSK9 and RPL27 were truncated to the first 33 and 32 amino acids, respectively (PCSK9[1:33] and RPL27[1:32]). The sequences contain distinct PF846 stall sites and were both fused to a GFP reporter. The GFP reporter and a frameshift mutant of PCSK9[1:33] (PCSK9-FS[1:33]), which mutates the nascent chain sequence while maintaining a nearly identical mRNA sequence, were included as negative controls.[13] […] Sequence sensitivity was further confirmed by an N-terminal deletion series of PCSK9[1:33]-GFP; deletion of N-terminal residues increasingly ablated PCSK9[1:33]-GFP translation sensitivity to PF846 (Figure 1D). The WG IVTT assay was miniaturized using a previously described microfluidic circuit modified for longer incubation times (Figure S1)[27] using PF846 as a positive control compound, and assay statistical quality was calculated (Z′=0.7) (Figure 1E). To confirm detection of translation inhibition from library beads, hygromycin B, a nonselective aminoglycoside translation inhibitor, was coupled to beads displaying a photocleavable linker (PC-HygB). UV irradiation releases hygromycin from the bead, allowing it to interact with the WG IVTT assay in the droplet. PC-HygB bead photocleavage supernatant inhibited PCSK9[1:33]-GFP translation both in a microplate assay and in microfluidic droplets (Figure 1F,G, S2). Assay statistical quality using PC-HygB positive control beads was similarly calculated (Z′ = 0.75, Figure 1H). […]
436 Microplate IVTT Assays
437 Wheat germ lysate IVTT plate assays were prepared as 5 µL reactions. Wheat germ lysate
438 (3 µL) was added to test compound or vehicle control (1 µL) in a 384-well black microplate
439 and the reaction was incubated (10 min, RT). Template (1 µL) was added and reaction
440 progress was immediately monitored (λex = 480 nm, λem = 530 nm, 27 °C, 2 h). Rela-
441 tive activity was calculated using the slope of fluorescence increase over time (at 15–30
442 min post reaction initiation) for compound samples relative to that of the DMSO vehicle
443 control. […]

HeLa-derived IVTT = assay: HeLa lysate IVTT microplate activity assay; format: biochemical, human; conditions: dose-response
Description: 421 region sequences were matched to an alpha numeric DNA region identifier (11xx, 22xx,
422 13xx, 24xx, 15xx, 26xx, respectively), while allowing a 1-bp mutation per encoding region.
423 No insertions or deletions were tolerated.
424 match a known encoding region identifier at all six encoding positions (2) contained a
425 single point mutation in more than 4 of the DNA encoding regions (3) contained a UMI
427 presented in the library or positive control designs or (5) contained a minimum Phred
428 quality score less than 20. A sum of UMI counts for all remaining unique combinations
429 of encoding region identifiers was then determined using a UMI aggregation algorithm;
430 1 bp mutations were considered the same UMI. Encoding region identifiers were then
431 converted to library BB identifiers per the library design with an associated UMI count.
432 Any encoding region/ bead-specific barcode combinations with a UMI count below a
433 manually determined threshold (10) were discarded. The remaining ”valid beads” were […]
440 progress was immediately monitored (λex = 480 nm, λem = 530 nm, 27 °C, 2 h). […]
441 tive activity was calculated using the slope of fluorescence increase over time (at 15–30 […]
449 immediately monitored (λex = 480 nm, λem = 530 nm, 27 °C, 2 h). […]
450 culated using the slope of fluorescence increase over time (15–30 min post reaction initia- […]

[2] = test system: PCSK9[1:33]-GFP translation from mRNA; assay: IVTT activity assay of PCSK9[1:33]-GFP initiated with RNA template; format: biochemical
Protocol: Figure S10. Activity of compounds 8 and 9 on transcription. (A) Screening hits 8 and 9 were analyzed in dose-response IVTT activity assays of PCSK9[1:33]-GFP initiated with DNA (black) and RNA (gray) template. (B) Products of PCSK9[1:33]-GFP T7 transcription reactions incubated with DMSO, screening hits 8 and 9, or PF846 were visualized on a 1.5% agarose gel
(1 picture or pasted object on this page, not shown here)

SMILES | inhibition of PCSK9[1:33]-GFP translation (in words) [1] | IC50 [1] | activity in HeLa-derived (human) IVTT (in words) (HeLa-derived IVTT) | activity when translation initiated from mRNA rather than plasmid DNA (in words) [2] | inhibition of translation of all reporters (in words) ([1]; all IVTT reporters tested)
Cc1cccc2ccnc(N(C(=O)[C@H]3CCCN(C(=O)c4cccc5c(C#N)c[nH]c45)C3)[C@@H]3CCCNC3)c12 [Compound 8] | moderately inhibited | 1.3 ± 0.2 µM | active | active | 
Cc1cccc2ccnc(N(C(=O)C3CCN(C(=O)c4cccc5c(C#N)c[nH]c45)CC3)[C@@H]3CCCNC3)c12 [Compound 9] | similarly active on both templates | 19.6 ± 0.2 µM | active | inactive | universally and completely inhibited
